Measured values from PMC12395297, “Bidirectional Modification of a Galbulimima Alkaloid Identifies Selective Opioid Ligands” (ACS Central Science, 2025).
“Also recorded” adds a separate entry of the source.

What was measured:
[1] = tested on: 320 GPCRs; assay: GPCRome PRESTO-Tango screen across 320 GPCRs (PDSP); type: cell-based
[2] = molecular target: T1, KOR (Homo sapiens, UniProt P41145); assay: Inhibition of forskolin-stimulated cAMP accumulation (KOR agonism, HTRF); type: cell-based
[3] = molecular target: T1, KOR; assay: 35S-GTPγS binding in CHO-KOR cells; type: biochemical; settings: read-out: KOR Emax
[4] = molecular target: T1, KOR; assay: KOR affinity (pKi) of pyridyl GB18 analogs, Figure 1b; type: binding; settings: footnote a
[5] = molecular target: MOR (Homo sapiens, UniProt P35372); set-up: method as in earlier paper of the authors (Woo, Shenvi, Nature 2022); settings: antagonism; TANGO β-arrestin signaling, n = 3; ref earlier paper of the authors (Woo, Shenvi, Nature 2022); cited from earlier work
Chain of MOR (P35372 whole entry): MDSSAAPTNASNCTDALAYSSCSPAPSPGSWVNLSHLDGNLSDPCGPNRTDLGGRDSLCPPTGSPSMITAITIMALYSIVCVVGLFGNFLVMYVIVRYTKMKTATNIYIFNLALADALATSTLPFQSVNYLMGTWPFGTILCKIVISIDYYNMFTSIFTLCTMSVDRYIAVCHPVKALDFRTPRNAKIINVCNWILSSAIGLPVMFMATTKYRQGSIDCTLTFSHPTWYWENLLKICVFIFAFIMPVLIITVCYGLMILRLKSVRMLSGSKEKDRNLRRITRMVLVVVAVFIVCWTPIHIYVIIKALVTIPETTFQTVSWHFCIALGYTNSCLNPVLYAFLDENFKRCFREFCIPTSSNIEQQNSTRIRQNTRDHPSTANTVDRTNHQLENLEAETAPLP

[6] = molecular target: T1, KOR; set-up: method as in earlier paper of the authors (Woo, Shenvi, Nature 2022); settings: antagonism; TANGO β-arrestin signaling, n = 3; ref earlier paper of the authors (Woo, Shenvi, Nature 2022); cited from earlier work

T1 sequence (P41145 whole entry): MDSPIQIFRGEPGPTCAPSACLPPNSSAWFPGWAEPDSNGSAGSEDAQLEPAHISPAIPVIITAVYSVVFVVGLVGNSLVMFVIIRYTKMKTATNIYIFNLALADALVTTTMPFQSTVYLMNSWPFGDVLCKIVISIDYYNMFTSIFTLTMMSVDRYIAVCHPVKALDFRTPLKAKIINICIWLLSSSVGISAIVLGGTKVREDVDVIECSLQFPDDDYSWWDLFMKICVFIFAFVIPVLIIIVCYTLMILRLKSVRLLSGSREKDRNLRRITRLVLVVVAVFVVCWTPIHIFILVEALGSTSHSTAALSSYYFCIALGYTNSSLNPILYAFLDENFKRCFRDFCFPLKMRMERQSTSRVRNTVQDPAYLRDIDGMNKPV

Molecule	GPCR selectivity in PRESTO-Tango agonist screen [1]	EC50 ([2]; inhibition of forskolin-stimulated cAMP accumulation, Figure 4 and text)	Emax ([2]; read-out: KOR Emax)	Emax [3]	Ki [4]	MOR pIC50 [5]	KOR pIC50 [6]
COC(=O)C1=CC23CCCCC2C2CC(c4cccc(C)n4)C(C)(O3)C12 (stereo not shown) [compound 2]	highly selective partial agonist; also recorded: agonized KOR with high selectivity among 320 GPCRs	476 nM	56%	34%	29.5 nM		
GB18						8	8
